From US9943614B2, “Cationic steroid antimicrobial diagnostic, detection, screening and imaging methods” (BRIGHAM YOUNG UNIVERSITY, priority 2008, dated 2018)

Tests used:
HIV = settings: cited from earlier work
S. aureus ATCC 25923 = test: In vitro binding of 99mTc-labelled agents to viable S. aureus bacteria; parameters: species or system Staphylococcus aureus; settings: 10 μg concentration, time not stated
bacteria = settings: cited from earlier work

SMILES | HIV infection of primary human CD4+ T cells (HIV) | In vitro binding to bacteria (S. aureus ATCC 25923) [%] | in-vitro binding in published reports (bacteria) [%]
CCCCCCCCNCCC[C@@H](C)[C@H]1CC[C@H]2[C@@H]3[C@H](OCCCN)C[C@@H]4C[C@H](OCCCN)CC[C@]4(C)[C@H]3C[C@H](OCCCN)[C@]12C [CSA-13] | inhibit HIV infection | – | –
O=C([O-])CN(CCN(CC(=O)[O-])CC(=O)[O-])CCN(CC(=O)[O-])CC(=O)[O-].[99Tc+4] [Compound 99mTc-DTPA] | – | ~10 | > 8
